The values below come from patent US20110305715A1, “ANTIBODIES TO 3-HYDROXYCOTININE AND METHODS OF USE THEREOF” (priority 2010, published 2011).

Assay [1] deals with 3-Hydroxycotinine MAb 22H9C7. The experiment in a line: Competitive microplate ELISA (test principle #1) with immobilized 3HC MAb and 3HC-HRP tracer. The following applies: for Reactivity (%): calculated from IC50 values, 3-Hydroxycotinine MAb 22H9C7; for IC50: competitor vs 3HC-HRP for 3-Hydroxycotinine MAb 22H9C7.
Method: (§1) Competitive microplate EIA for quantification of COT (A) and 3HC (B) by test principle #1. Different concentrations of COT or 3HC and fifteen other NIC metabolites were incubated with an immobilized COT MAb or 3HC MAb in the presence of a constant amount of COT-HRP or 3HC-HRP. The binding of the COT-HRP or 3HC-HRP to its corresponding MAb was detected by the reaction of the HRP with peroxidase substrate. The graph illustrates an inhibition curve that was formed with various concentrations of authentic COT (A) and 3HC (B). Apparent COT or 3HC concentrations are inversely related to the OD450 value.
As for the anti-cotinine monoclonal antibody, above, specificity and sensitivity of the anti-3-hydroxycotinine monoclonal antibody (3HC MAb) was determined in competitive microplate ELISA with 3HC and a battery of NIC metabolites and tobacco alkaloids using 3HC-HRP as tracer. […] Apparent 3HC concentrations are inversely related to the OD450 value.
Assay [2] deals with Cotinine MAb 3B11A4. The experiment in a line: Competitive microplate ELISA (test principle #1) with immobilized COT MAb and COT-HRP tracer. The format is binding. The following applies: for Reactivity (%): calculated from IC50 values, Cotinine MAb 3B11A4; for IC50: competitor vs COT-HRP for Cotinine MAb 3B11A4.
Method: as §1
Specificity and sensitivity of the anti-cotinine monoclonal antibody (COT MAb) were determined in competitive microplate ELISA with COT and a battery of NIC metabolites and tobacco alkaloids using COT-HRP as tracer. […] Apparent COT concentrations are inversely related to the OD450 value.

Each structure is given as a SMILES string. ≈ marks a conversion by molar mass, not a printed value.

With `CN1C(=O)C(O[C@@H]2O[C@H](C(=O)O)[C@@H](O)[C@H](O)[C@H]2O)CC1c1cccnc1` (stereo partly drawn) [3-Hydroxycotinine-gluconuride, 3-hydroxycotinine-glucuronide], in assay [1], the “Reactivity (%)” value is reported as under 1% and the 50% inhibitory concentration (IC50) is recorded as >5,000 ng/mL. In assay [2], the “Reactivity (%)” value is listed as under 1.5% and the IC50 was >5,000 ng/mL.
For `CN1C(=O)C(O)C[C@H]1c1cccnc1` (stereo partly drawn) [3-Hydroxycotinine], in assay [1], the “Reactivity (%)” value is given as 100% and the half-inhibitory concentration (IC50) amounted to 39.8 ng/mL (≈ 0.207 µM). Besides, in assay [2], the “Reactivity (%)” value was 1.86% and the half-inhibitory concentration (IC50) is recorded as 3545.0 ng/mL (≈ 18.4 µM).
The corresponding values for `CN1C(=O)CC[C@@]1(O)c1cccnc1` [5-Hydroxycotinine] are under 1%, >5,000 ng/mL, 4.39% and 1505.2 ng/mL (≈ 7.83 µM).
Turning to `c1cncc(C2=NCCCC2)c1` [Anabaseine], the IC50 in assay [1] is listed as >5,000 ng/mL. In addition, in assay [2], the “Reactivity (%)” value is recorded as under 1.5% and the concentration for half-maximal inhibition (IC50) is reported as >5,000 ng/mL.
Consider `C1=CCC(c2cccnc2)NC1` (stereo not drawn) [Anatabine], for which the IC50 in assay [1] is >5,000 ng/mL. In assay [2], the “Reactivity (%)” value was under 1.5% and the 50% inhibitory concentration (IC50) is recorded as >5,000 ng/mL.
Consider `CN1C(=O)CC[C@H]1c1ccc[n+]([O-])c1` [Cotinine-N-Oxide, cotinine-N-oxide], for which the “Reactivity (%)” value in assay [1] is given as under 1%; in assay [2], under 1.5%. The half-inhibitory concentration (IC50) in assay [1] and in assay [2] was >5,000 ng/mL throughout.
Take `CN1C(=O)CCC1c1ccc[n+](C2OC(C(=O)[O-])C(O)C(O)C2O)c1` (stereo not drawn) [Cotinine-gluconuride, cotinine-glucuronide]: in assay [1], the “Reactivity (%)” value is on record as under 1% and the 50% inhibitory concentration (IC50) is listed as >5,000 ng/mL. For the same compound, in assay [2], the “Reactivity (%)” value is on record as under 1.5% and the half-maximal inhibitory concentration (IC50) is >5,000 ng/mL.
On to `CN1C(=O)CC[C@H]1c1cccnc1` [Cotinine], for which, in assay [1], the “Reactivity (%)” value is under 1% and the IC50 is recorded as >5,000 ng/mL. Also, in assay [2], the “Reactivity (%)” value is 100% and the IC50 was found to be 66.1 ng/mL (≈ 0.375 µM).
For the compound `c1cncc(C2=NCCC2)c1` [Myosmine], the half-inhibitory concentration (IC50) in assay [1] and in assay [2] was >5,000 ng/mL each time. The “Reactivity (%)” value in assay [2] is recorded as under 1.5%.
On to `c1cncc(-c2ccnc(-c3cccnc3)c2)c1` [Nicotelline], for which the IC50 in assay [1] and in assay [2] was >5,000 ng/mL each time. Further, in assay [2], the “Reactivity (%)” value is reported as under 1.5%.
In the case of `CN1CCCC1c1ccc[n+]([O-])c1` (stereo not drawn) [Nicotine-N-Oxide, Nicotine-N-oxide], the “Reactivity (%)” value in assay [1] was under 1%; in assay [2] it was under 1.5%. Further, the 50% inhibitory concentration (IC50) in assay [1] and in assay [2] was >5,000 ng/mL in each case.
In the case of `CN1CCC[C@H]1c1ccc[n+]([C@@H]2O[C@H](C(=O)[O-])[C@@H](O)[C@H](O)[C@H]2O)c1` [Nicotine-gluconuride, Nicotine-glucuronide], in assay [1], the “Reactivity (%)” value was under 1% and the concentration for half-maximal inhibition (IC50) was >5,000 ng/mL. Further, in assay [2], the “Reactivity (%)” value is listed as under 1.5% and the half-maximal inhibitory concentration (IC50) was >5,000 ng/mL.
As to `CN1CCCC1c1cccnc1` (stereo not drawn) [Nicotine], in assay [1], the “Reactivity (%)” value is reported as under 1% and the 50% inhibitory concentration (IC50) is given as >5,000 ng/mL. In assay [2], the “Reactivity (%)” value is recorded as under 1.5% and the 50% inhibitory concentration (IC50) is listed as >5,000 ng/mL.
`Cn1cccc1-c1cccnc1` [Nicotyrine]: the IC50 in assay [1] and in assay [2] was >5,000 ng/mL throughout. Further, in assay [2], the “Reactivity (%)” value was under 1.5%.
As to `O=C1CCC(c2cccnc2)N1` (stereo not drawn) [Norcotinine], the half-maximal inhibitory concentration (IC50) in assay [1] was >5,000 ng/mL. In assay [2], the “Reactivity (%)” value is reported as under 1.5% and the concentration for half-maximal inhibition (IC50) is reported as >5,000 ng/mL.
As to `c1cncc([C@@H]2CCCN2)c1` [Nornicotine], the IC50 in assay [1] and in assay [2] was >5,000 ng/mL each time. Also, the “Reactivity (%)” value in assay [2] is given as under 1.5%.

What is called IC50 is the concentration that gives 50% inhibition. Read a low IC50 as greater potency in that assay.
